Measurements published in the supplement of paper PMC11061612.

What was measured:
[1] = tested on: CAL-62 (Thyroid Gland Carcinoma); assay: Bliss excess, mean over the matrix (fraction); higher = more synergy
Procedure, shortened: (§1)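 Cell lines in DMEM/F12 or RPMI with 10% FBS were plated in 1536-well plates, held 24 hours at 37°C, 5% CO2, then given two-drug dose matrices for 72 hours (DMSO typically 0.2%). Viability was read by CellTiter-Glo 2.0 luminescence and scaled as inhibition from 0 (vehicle wells) to 1 (blank wells). Combination Emax is the second-highest inhibition in the matrix; Bliss excess is observed combination effect minus expected EA + EB − EA·EB, EA and EB being single-agent effects.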

[2] = tested on: NB12 (Neuroblastoma); assay: as above
Procedure, shortened: as §1

[3] = tested on: NCI-H2342 (Lung Adenocarcinoma); assay: as above
Procedure, shortened: as §1

[4] = tested on: RCM-1 (Colorectal Carcinoma); assay: as above
Procedure, shortened: as §1

[5] = tested on: RERF-GC-1B (Gastric Carcinoma); assay: as above
Procedure, shortened: as §1

[6] = tested on: RERF-LC-Sq1 (Squamous Cell Lung Carcinoma); assay: as above
Procedure, shortened: as §1

[7] = tested on: SK-MEL-2 (Melanoma); assay: as above
Procedure, shortened: as §1

[8] = tested on: TE-8 (Esophageal Squamous Cell Carcinoma); assay: as above
Procedure, shortened: as §1

[9] = tested on: NB12 (Neuroblastoma); assay: combination Emax (second highest fraction inhibited in the dose matrix, 72 h); higher = more inhibition; extreme values may be limits of the assay
Procedure, shortened: as §1

[10] = tested on: SK-MEL-2 (Melanoma); assay: as above
Procedure, shortened: as §1
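Wherever Bliss excess, mean over the matrix is given: after 72 h of two-drug dosing.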

| Compound | Bliss excess [1] | Bliss excess [2] | Bliss excess [3] | Bliss excess [4] | Bliss excess [5] | Bliss excess [6] | Bliss excess [7] | Bliss excess [8] | combination Emax [9] | combination Emax [10] |
| --- | --- | --- | --- | --- | --- | --- | --- | --- | --- | --- |
| NC1(C(=O)N[C@@H](CCO)c2ccc(Cl)cc2)CCN(c2ncnc3[nH]ccc23)CC1 [Capivasertib] + CC(C)n1c(=O)n(C)c2cnc3cc(F)c(-c4ccc(OCCCN5CCCCC5)nc4)cc3c21 [AZD1390] (first compound max 10 µM, 7x7, partner max 0.3 µM) | -0.0389 | 0.0009 | -0.0212 | -0.0274 | -0.0323 | -0.0655 | -0.0125 | -0.0571 | 0.504 | 0.176 |
| NC1(C(=O)N[C@@H](CCO)c2ccc(Cl)cc2)CCN(c2ncnc3[nH]ccc23)CC1 [Capivasertib] + CCN(CCO)CCCOc1ccc2c(Nc3cc(CC(=O)Nc4cccc(F)c4)[nH]n3)ncnc2c1 [AZD2811] (first compound max 10 µM, 7x7, partner max 1 µM) | 0.0437 | -0.0279 | 0.0242 | -0.0426 | 0.0188 | 0.0072 | -0.0383 | -0.0406 | 0.783 | 0.0759 |
| NC1(C(=O)N[C@@H](CCO)c2ccc(Cl)cc2)CCN(c2ncnc3[nH]ccc23)CC1 [Capivasertib] + COc1nnc2ccc(N3CCC(c4ccc(OCCN5CCN(C)C(=O)[C@H]5C)cc4)CC3)nn12 [AZD5153] (first compound max 10 µM, 7x7, partner max 1 µM) | -0.0078 | 0.0031 | 0.0361 | 0.0153 | 0.0375 | 0.0617 | -0.0015 | -0.0718 | 0.985 | 0.578 |
| NC1(C(=O)N[C@@H](CCO)c2ccc(Cl)cc2)CCN(c2ncnc3[nH]ccc23)CC1 [Capivasertib] + C[C@@H]1COCCN1C2=NC(=NC(=C2)C3(CC3)[S@](=N)(=O)C)C4=C5C=CNC5=NC=C4 [AZD6738] (first compound max 10 µM, 7x7, partner max 10 µM) | -0.0306 | -0.0449 | -0.0709 | -0.0863 | -0.0076 | -0.0719 | -0.0335 | -0.0784 | 0.738 | 0.152 |
| NC1(C(=O)N[C@@H](CCO)c2ccc(Cl)cc2)CCN(c2ncnc3[nH]ccc23)CC1 [Capivasertib] + Cn1cnc2c(F)c(Nc3ccc(Br)cc3Cl)c(C(=O)NOCCO)cc21 [Selumetinib] (first compound max 10 µM, 7x7, partner max 10 µM) | 0.0695 | 0.0154 | 0.0891 | 0.019 | 0.0077 | 0.0005 | 0.0662 | -0.0324 | 0.504 | 0.843 |
| Cc1nc(Nc2ncc(C(=O)Nc3c(C)cccc3Cl)s2)cc(N2CCN(CCO)CC2)n1 [Dasatinib] + CC(=O)Nc1cccc(-n2c(=O)n(C3CC3)c(=O)c3c(Nc4ccc(I)cc4F)n(C)c(=O)c(C)c32)c1 [Trametinib] (first compound max 2 µM, 7x7, partner max 1 µM) | 0.163 | 0.0319 | -0.0578 | 0.018 | 0.0784 | -0.179 | -0.0571 | -0.0436 | 0.266 | 0.94 |
| COc1cc2ncnc(Nc3ccc(F)c(Cl)c3)c2cc1OCCCN1CCOCC1 [Gefitinib] + CC(C)n1c(=O)n(C)c2cnc3cc(F)c(-c4ccc(OCCCN5CCCCC5)nc4)cc3c21 [AZD1390] (first compound max 10 µM, 7x7, partner max 0.3 µM) | -0.0451 | -0.0668 | -0.052 | -0.0395 | -0.092 | -0.0938 | -0.0348 | -0.075 | 0.139 | 0.169 |
| CS(=O)(=O)CCNCc1ccc(-c2ccc3ncnc(Nc4ccc(OCc5cccc(F)c5)c(Cl)c4)c3c2)o1 [Lapatinib] + C[C@@H](Oc1cc(-c2cnn(C3CCNCC3)c2)cnc1N)c1c(Cl)ccc(F)c1Cl [Crizotinib] (first compound max 10 µM, 7x7, partner max 10 µM) | -0.0436 | -0.0622 | -0.0006 | -0.0107 | -0.0237 | -0.039 | -0.0232 | -0.0294 | 0.843 | 0.62 |
| CC(=O)c1c(C)c2cnc(Nc3ccc(N4CCNCC4)cn3)nc2n(C2CCCC2)c1=O [Palbociclib] + CC1(C)CCC(CN2CCN(c3ccc(C(=O)NS(=O)(=O)c4ccc(NCC5CCOCC5)c([N+](=O)[O-])c4)c(Oc4cnc5[nH]ccc5c4)c3)CC2)=C(c2ccc(Cl)cc2)C1 [Venetoclax] (first compound max 10 µM, 7x7, partner max 1 µM) | -0.029 | 0.0237 | -0.0564 | -0.0717 | -0.048 | 0.0475 | -0.0492 | -0.0784 | 0.614 | 0.11 |
| CC(=O)c1c(C)c2cnc(Nc3ccc(N4CCNCC4)cn3)nc2n(C2CCCC2)c1=O [Palbociclib] + Cc1c2c(nn1C)CSCc1cc(n(C)n1)CSc1cc(c3ccccc3c1)OCCCc1c(C(=O)O)n(C)c3c-2c(Cl)ccc13 [AZD5991] (first compound max 10 µM, 7x7, partner max 1 µM) | -0.0047 | 0.0159 | -0.0063 | -0.0561 | -0.0116 | -0.0228 | -0.045 | -0.108 | 0.357 | 0.905 |
| CC(=O)c1c(C)c2cnc(Nc3ccc(N4CCNCC4)cn3)nc2n(C2CCCC2)c1=O [Palbociclib] + Cn1cnc2c(F)c(Nc3ccc(Br)cc3Cl)c(C(=O)NOCCO)cc21 [Selumetinib] (first compound max 10 µM, 7x7, partner max 10 µM) | 0.0248 | 0.0177 | -0.0441 | -0.0286 | -0.0329 | -0.0488 | 0.0374 | -0.0454 | 0.276 | 0.805 |
| C[C@@H](c1ccc2nccn2c1)n1nnc2ncc(-c3cnn(C)c3)nc21 [Savolitinib] + CC1(C)CCC(CN2CCN(c3ccc(C(=O)NS(=O)(=O)c4ccc(NCC5CCOCC5)c([N+](=O)[O-])c4)c(Oc4cnc5[nH]ccc5c4)c3)CC2)=C(c2ccc(Cl)cc2)C1 [Venetoclax] (first compound max 1 µM, 7x7, partner max 1 µM) | -0.0246 | -0.0062 | -0.0631 | -0.0416 | -0.0303 | -0.0562 | -0.0295 | -0.105 | 0.641 | 0.14 |
| C[C@@H](c1ccc2nccn2c1)n1nnc2ncc(-c3cnn(C)c3)nc21 [Savolitinib] + Cc1c2c(nn1C)CSCc1cc(n(C)n1)CSc1cc(c3ccccc3c1)OCCCc1c(C(=O)O)n(C)c3c-2c(Cl)ccc13 [AZD5991] (first compound max 1 µM, 7x7, partner max 1 µM) | -0.022 | -0.0075 | 0.0288 | -0.0451 | -0.0141 | -0.009 | -0.023 | -0.0142 | 0.219 | 0.901 |
| Cn1cnc2c(F)c(Nc3ccc(Br)cc3Cl)c(C(=O)NOCCO)cc21 [Selumetinib] + C=CCn1c(=O)c2cnc(Nc3ccc(N4CCN(C)CC4)cc3)nc2n1-c1cccc(C(C)(C)O)n1 [AZD1775] (first compound max 10 µM, partner max 1 µM) | 0.0273 | -0.0517 | -0.0366 | -0.0359 | 0.025 | -0.0617 | 0.0533 | 0.0076 | 0.674 | 0.831 |
| Cn1cnc2c(F)c(Nc3ccc(Br)cc3Cl)c(C(=O)NOCCO)cc21 [Selumetinib] + CC(C)n1c(=O)n(C)c2cnc3cc(F)c(-c4ccc(OCCCN5CCCCC5)nc4)cc3c21 [AZD1390] (first compound max 10 µM, 7x7, partner max 0.3 µM) | -0.0319 | -0.0215 | -0.0489 | -0.0495 | 0.0413 | 0.0117 | -0.0602 | 0.0186 | 0.106 | 0.739 |
| Cn1cnc2c(F)c(Nc3ccc(Br)cc3Cl)c(C(=O)NOCCO)cc21 [Selumetinib] + CCN(CCO)CCCOc1ccc2c(Nc3cc(CC(=O)Nc4cccc(F)c4)[nH]n3)ncnc2c1 [AZD2811] (first compound max 10 µM, 7x7, partner max 1 µM) | 0.0427 | -0.0881 | -0.0569 | -0.0259 | 0.0288 | -0.0041 | -0.0538 | -0.0471 | 0.607 | 0.722 |
| Cn1cnc2c(F)c(Nc3ccc(Br)cc3Cl)c(C(=O)NOCCO)cc21 [Selumetinib] + C[C@@H]1COCCN1C2=NC(=NC(=C2)C3(CC3)[S@](=N)(=O)C)C4=C5C=CNC5=NC=C4 [AZD6738] (first compound max 10 µM, 7x7, partner max 10 µM) | 0.0142 | -0.0545 | -0.0577 | -0.132 | 0.152 | 0.0516 | -0.0161 | -0.0289 | 0.39 | 0.806 |
